Test results: paper PMC8234462, “Novel Cyclophilin Inhibitor Decreases Cell Proliferation and Tumor Growth in Models of Hepatocellular Carcinoma” (Cancers, 2021)
Entries after “also recorded” stand apart in the source; their conditions may differ.

Columns and labels:
[1] = tested on: HUH7; assay: Mitochondrial membrane potential (DiOC(6)3) and PI fluorocytometry; assay type: cell-based, human; conditions: 72 h, 20, 50 or 100 nM
Protocol: (§1) HEPG2 and HUH7 cells were seeded at 1.5 × 10^5 cells/well and 1 × 10^5 cells/well, respectively, 24 h prior to treatment. After 72 h of treatment (0, 20, 50 or 100 nM of NV651), supernatant and trypsinized cells were collected and stained with propidium iodide (PI) (Thermo Fisher Scientific, Waltham, MA, USA) at a concentration of 1 μg/mL to evaluate the plasma membrane integrity; due to the lack of cell permeability, only dead cells are able to incorporate it. In addition, changes in the mitochondrial membrane potential were evaluated by 3,3′-dihexyloxacarbocyanine iodide (DiOC(6)3)(Molecular Probes–Invitrogen, Waltham, MA, USA) staining at a concentration of 40 nM.
(§2) Data was acquired with FACSverse Instrument and analyzed with FCS Express 6 Flow Research.

[2] = tested on: HEPG2; assay: as above; assay type: cell-based, human; conditions: 72 h, 20, 50 or 100 nM
Protocol: as §1, §2

[3] = tested on: Dendritic cells; assay: Cytotoxicity, CellTiter Glo; assay type: cell-based; conditions: Homo sapiens, Dendritic cell, 168 h, 7 days of treatment, read-out: IC50 (50% reduction in cell viability)
Protocol: The evaluation of the off-target effects of NV651 was performed by ImQuest BioSciences Inc. (Frederick, MD, USA) by analyzing the cytotoxicity in a panel of primary cells. NV651 was evaluated at a concentration of 30 µM and five serial half-logarithmic dilutions in triplicate. The positive control compounds for each cell type were purchased from Sigma-Aldrich (St. Louis, MO, USA) and were as follows: Unstimulated human peripheral blood mononuclear cells (PBMCs), phytohemagglutinin (PHA)-stimulated PBMCs, monocytes/macrophages, dendritic cells, hepatocytes, induced pluripotent stem cell (iPS) neurons: […] AZT, kidney cells (RPTEC): cisplatin and iPS cardiomyocytes: Doxazosin. The isolation was based on Nair, Archer. Briefly, freshly separated PBMCs from one donor were suspended in DPBS at 4 × 10^6 cells per mL and cultured in a T-75 flask. Cells were incubated for 30 min and then washed 5–7 times with DPBS to remove nonadherent cells. Cells were cultured in RPMI 1640 supplemented with 10% FBS, 2-mM L-glutamine, 25-mM HEPES, […], 100-µg/mL streptomycin, 50-ng/mL rhGM-CSF and 50-ng/mL rhIL-4 and incubated for 7 days. After the incubation period, cells were cultured in the same media with the addition of LPS (10 ng/mL) for two days. […]

[4] = In vivo toxicity, body weight; conditions: BALB/c nude mice; 25, 50 or 200 mg/kg daily IP for 5 days
Protocol: All the procedures related to animal handling, care and the treatment in this study were performed according to the guidelines approved by the Institutional Animal Care and Use Committee (IACUC) of Shanghai ChemPartner Ltd. (Shanghai, China) following the guidance of the Association for Assessment and Accreditation of Laboratory Animal Care (AAALAC). BALB/c nude mice were kept in individual ventilation cages at a constant temperature and humidity, with 5 animals in each cage. Animals had free access to irradiation-sterilized dry granule food during the entire study period and water. BALB/c nude mice between 6–8 weeks were treated with either 25, 50 or 200 mg/kg dissolved in 25% buffered beta OH cyclodextrin (n = 5 mice per treatment). Daily doses were given intraperitoneally (IP) for 5 days. Mice were weighted daily until the 6th day.

[5] = Stability of NV651 solution in 25% buffered HPbCD; assay type: physicochemical; conditions: stored at 4 °C
Protocol: Twenty-five percent buffered Hydroxy Propyl beta Cyclodextrin (HPbCD) was prepared from Hydroxy Propyl beta Cyclodextrin (Roquette, Lestrem, France), EDTA solution and phosphate buffer at a pH of 7.4, filtered with a […] (VWR, Cat# 28145-483, Radnor, PA, USA) and stored at 4 °C. NV651 was prepared at a concentration of 10 mg/kg with 25% buffered HPbCD (vehicle). NV651 solution was sonicated for 30 min in a water bath sonicator (Bioruptor, Diagenode, Denville, NJ, USA) and shaken for up to an hour, followed by a secondary sterilization with a 0.2-µm filter. NV651 solution was stored at 4 °C up to 2 weeks, with stability confirmed up to 3 weeks.

[6] = tested on: iPS neurons; assay: Cytotoxicity, CellTiter Glo; assay type: cell-based; conditions: Homo sapiens, Neuron, 72 h, 3 days of treatment, read-out: IC50 (50% reduction in cell viability)
Protocol: (§3) The evaluation of the off-target effects of NV651 was performed by ImQuest BioSciences Inc. (Frederick, MD, USA) by analyzing the cytotoxicity in a panel of primary cells. NV651 was evaluated at a concentration of 30 µM and five serial half-logarithmic dilutions in triplicate. The positive control compounds for each cell type were purchased from Sigma-Aldrich (St. Louis, MO, USA) and were as follows:
(§4) CellTiter Glo was performed to evaluate cell viability. CellTiter Glo Luminescent Cell Viability Assay (Promega, Madison, WI, USA) was performed according to the manufacturer’s instructions.

[7] = tested on: Monocytes/Macrophages; assay: Cytotoxicity, CellTiter Glo; assay type: cell-based; conditions: Homo sapiens, 168 h, 7 days of treatment, read-out: IC50 (50% reduction in cell viability)
Protocol: as §3, §4

[8] = tested on: Hepatocytes; assay: Cytotoxicity, CellTiter Glo; assay type: cell-based; conditions: Homo sapiens, Hepatocyte, 48 h, 2 days of treatment, read-out: IC50 (50% reduction in cell viability)
Protocol: as §3, §4

CC(=O)CCC1C(=O)NC(C(C)C)C(=O)NC(Cc2cc(O)cc(F)c2)C(=O)N2CCCC(N2)C(=O)OC(C(C)=CC=CC(=O)OC(C)(C)C)CC=CC=CC(O)C(C)C1O (centres unmarked) [NV651]
changes in mitochondrial membrane potential (DiOC6(3)) and plasma membrane integrity (PI) [1]: did not show any significant differences | changes in mitochondrial membrane potential (DiOC6(3)) and plasma membrane integrity (PI) [2]: did not show any significant differences | IC50 [3]: 24.2 µM | body weight change [4]: no significant weight loss or other clinical signs; also recorded: no body weight losses | stability of NV651 solution [5]: up to 3 weeks | IC50 [6]: > 30 µM | IC50 [7]: 24.3 µM | IC50 [8]: > 30 µM
